Data reported in US12441703B2, “Carboxamides as modulators of sodium channels” (VERTEX PHARMACEUTICALS INCORPORATED, priority 2019, dated 2025).

target: human NaV 1.8 (Homo sapiens, UniProt Q9Y5Y9); experiment: E-VIPR assay for detecting and measuring NaV inhibition properties; assay type: cell-based; settings: E-VIPR assay conducted in the presence of human serum; HEK cells expressing truncated human NaV 1.8; read-out: IC50
Method in brief: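 HEK cells with truncated human NaV1.8 plus KIR2.1 BacMam, hexyl dye loaded 20 min, compound 30 min at room temperature, 11-point 3-fold series […], 0.625% DMSO, with or without human serum. E-VIPR biphasic stimulation at 10 Hz for 10 s; membrane-potential response read as normalized coumarin/oxonol ratio.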

human NaV 1.8, sequence (Q9Y5Y9 whole entry, looked up, the tested form may be a part): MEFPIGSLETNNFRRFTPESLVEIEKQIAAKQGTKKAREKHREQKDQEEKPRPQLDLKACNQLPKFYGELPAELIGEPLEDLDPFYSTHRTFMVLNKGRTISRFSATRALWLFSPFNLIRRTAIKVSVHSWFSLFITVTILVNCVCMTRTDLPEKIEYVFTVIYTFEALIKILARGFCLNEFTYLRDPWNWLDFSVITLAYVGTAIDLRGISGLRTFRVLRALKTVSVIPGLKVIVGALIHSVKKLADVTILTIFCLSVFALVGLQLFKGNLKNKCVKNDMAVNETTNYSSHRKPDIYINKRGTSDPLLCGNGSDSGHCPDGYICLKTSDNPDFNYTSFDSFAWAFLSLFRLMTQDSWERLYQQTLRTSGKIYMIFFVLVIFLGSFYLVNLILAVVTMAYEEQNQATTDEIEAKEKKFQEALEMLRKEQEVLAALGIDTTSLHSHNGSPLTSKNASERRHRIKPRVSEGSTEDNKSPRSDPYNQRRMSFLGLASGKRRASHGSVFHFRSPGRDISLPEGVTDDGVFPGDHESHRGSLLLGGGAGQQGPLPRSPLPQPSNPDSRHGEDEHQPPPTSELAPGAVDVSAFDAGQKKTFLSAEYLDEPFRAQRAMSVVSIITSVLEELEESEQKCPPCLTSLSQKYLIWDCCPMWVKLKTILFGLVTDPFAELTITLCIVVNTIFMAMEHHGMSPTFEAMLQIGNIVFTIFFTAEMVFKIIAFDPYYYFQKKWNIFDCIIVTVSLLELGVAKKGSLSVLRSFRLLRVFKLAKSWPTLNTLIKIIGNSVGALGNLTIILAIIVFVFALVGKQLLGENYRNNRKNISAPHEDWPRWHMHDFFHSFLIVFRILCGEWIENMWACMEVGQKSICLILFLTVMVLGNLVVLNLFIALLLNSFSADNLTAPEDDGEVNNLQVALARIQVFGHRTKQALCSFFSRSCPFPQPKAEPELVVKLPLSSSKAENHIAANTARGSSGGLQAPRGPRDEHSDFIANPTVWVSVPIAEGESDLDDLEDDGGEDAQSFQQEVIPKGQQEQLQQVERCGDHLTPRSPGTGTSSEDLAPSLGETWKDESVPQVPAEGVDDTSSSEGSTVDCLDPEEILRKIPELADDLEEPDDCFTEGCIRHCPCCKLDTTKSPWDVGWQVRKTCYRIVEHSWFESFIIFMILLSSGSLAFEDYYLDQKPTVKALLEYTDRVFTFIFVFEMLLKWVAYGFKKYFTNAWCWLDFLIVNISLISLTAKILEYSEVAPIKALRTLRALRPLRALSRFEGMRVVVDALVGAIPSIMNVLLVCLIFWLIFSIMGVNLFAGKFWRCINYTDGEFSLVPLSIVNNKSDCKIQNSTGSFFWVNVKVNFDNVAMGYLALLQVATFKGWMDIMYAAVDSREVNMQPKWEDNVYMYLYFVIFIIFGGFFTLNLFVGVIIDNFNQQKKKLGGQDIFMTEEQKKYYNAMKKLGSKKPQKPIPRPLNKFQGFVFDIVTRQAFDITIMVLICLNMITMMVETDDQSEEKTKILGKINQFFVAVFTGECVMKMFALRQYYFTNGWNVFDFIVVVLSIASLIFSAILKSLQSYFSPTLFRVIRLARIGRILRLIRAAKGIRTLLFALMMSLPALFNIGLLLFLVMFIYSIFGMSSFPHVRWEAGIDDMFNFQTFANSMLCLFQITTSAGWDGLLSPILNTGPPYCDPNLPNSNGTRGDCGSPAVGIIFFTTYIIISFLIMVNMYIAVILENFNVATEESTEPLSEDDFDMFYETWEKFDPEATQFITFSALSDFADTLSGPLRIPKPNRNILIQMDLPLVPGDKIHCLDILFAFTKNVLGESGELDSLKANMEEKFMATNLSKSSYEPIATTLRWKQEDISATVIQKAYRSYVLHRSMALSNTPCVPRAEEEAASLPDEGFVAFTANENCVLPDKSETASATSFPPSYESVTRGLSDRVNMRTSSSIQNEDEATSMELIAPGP

Going from `COc1c(Oc2ccc(C(F)(F)F)c(C)c2C(=O)Nc2ccc(C(N)=O)nc2)ccc(F)c1F` [Compound 179, 5-[[6-(3,4-difluoro-2-methoxy-phenoxy)-2-methyl-3-(trifluoromethyl)benzoyl]amino]pyridine-2-carboxamide] to `COc1c(Oc2ccc(C(F)(F)F)c(C)c2C(=O)Nc2cc(C(N)=O)ncc2C)ccc(F)c1F` [Compound 180, 4-[[6-(3,4-difluoro-2-methoxy-phenoxy)-2-methyl-3-(trifluoromethyl)benzoyl]amino]-5-methyl-pyridine-2-carboxamide], the IC50 falls from 2000 nM to 510 nM (3.9-fold).

First: COc1cc(OC(F)(F)F)ccc1Oc1ccc(C2CC2)c(C)c1C(=O)Nc1ccnc(C(N)=O)c1 [Compound 181, 4-[[3-cyclopropyl-6-[2-methoxy-4-(trifluoromethoxy)phenoxy]-2-methyl-benzoyl]amino]pyridine-2-carboxamide]
Second: Cc1c(C2CC2)ccc(Oc2ccc(OC(F)(F)F)cc2Cl)c1C(=O)Nc1ccnc(C(N)=O)c1 [Compound 199, 4-[[6-[2-chloro-4-(trifluoromethoxy)phenoxy]-3-cyclopropyl-2-methyl-benzoyl]amino]pyridine-2-carboxamide]
The IC50 of the first is 1.8-fold lower: 12 nM for the first, 21 nM for the second.

Going from `COc1cc(OC(F)(F)F)ccc1Oc1ccc(C2CC2)c(C)c1C(=O)Nc1ccc(C(N)=O)nc1` [Compound 182] to `COc1c(Oc2ccc(C3CC3)c(C)c2C(=O)Nc2ccc(C(N)=O)nc2)ccc(OC(F)(F)F)c1F` [Compound 197, 5-[[3-cyclopropyl-6-[3-fluoro-2-methoxy-4-(trifluoromethoxy)phenoxy]-2-methyl-benzoyl]amino]pyridine-2-carboxamide], the IC50 falls from 290 nM to 120 nM (2.4-fold). The second is the more potent here.

Compared with `CCc1c(C(F)(F)F)ccc(Oc2ccc(OC(F)(F)F)cc2OC)c1C(=O)Nc1ccnc(C(N)=O)c1` [Compound 183, 4-[[2-ethyl-6-[2-methoxy-4-(trifluoromethoxy)phenoxy]-3-(trifluoromethyl)benzoyl]amino]pyridine-2-carboxamide], `COc1cc(OC(F)(F)F)ccc1Oc1ccc(C(F)(F)F)c(Cl)c1C(=O)Nc1ccnc(C(N)=O)c1` [Compound 191, 4-[[2-chloro-6-[2-methoxy-4-(trifluoromethoxy)phenoxy]-3-(trifluoromethyl)benzoyl]amino]pyridine-2-carboxamide] is 7-fold lower in IC50: 14 nM for the first, 2 nM for the second. The second is the more potent here.

First: CCc1c(C(F)(F)F)ccc(Oc2ccc(OC(F)(F)F)cc2OC)c1C(=O)Nc1ccc(C(N)=O)nc1 [Compound 184]
Second: COc1cc(OC(F)(F)F)ccc1Oc1cc(C(F)(F)F)cc(C)c1C(=O)Nc1ccc(C(N)=O)nc1 [Compound 187, 5-[[2-[2-methoxy-4-(trifluoromethoxy)phenoxy]-6-methyl-4-(trifluoromethyl)benzoyl]amino]pyridine-2-carboxamide]
The IC50 of the first is 3.5-fold lower: 140 nM for the first, 490 nM for the second. The first is the more potent here.

Compared with `COc1cc(OC(F)(F)F)ccc1Oc1ccc(CC(C)C)c(C)c1C(=O)Nc1ccnc(C(N)=O)c1` [Compound 185, 4-[[3-isobutyl-6-[2-methoxy-4-(trifluoromethoxy)phenoxy]-2-methyl-benzoyl]amino]pyridine-2-carboxamide], `COc1cc(OC(F)(F)F)ccc1Oc1ccc(OC2CC(F)(F)C2)c(C)c1C(=O)Nc1ccnc(C(N)=O)c1` [Compound 204, 4-[[3-(3,3-Difluorocyclobutoxy)-6-[2-Methoxy-4-(Trifluoromethoxy)Phenoxy]-2-Methyl-Benzoyl]Amino]Pyridine-2-Carboxamide] is 15-fold higher in IC50: 11 nM for the first, 170 nM for the second.

First: COc1cc(OC(F)(F)F)ccc1Oc1cc(C(F)(F)F)cc(C)c1C(=O)Nc1cc(C(N)=O)ncc1C [Compound 186, 4-[[2-[2-methoxy-4-(trifluoromethoxy)phenoxy]-6-methyl-4-(trifluoromethyl)benzoyl]amino]-5-methyl-pyridine-2-carboxamide]
Second: COc1cc(OC(F)(F)F)ccc1Oc1cc(C(F)(F)F)cc(C)c1C(=O)Nc1ccnc(C(N)=O)c1 [Compound 188, 4-[[2-[2-methoxy-4-(trifluoromethoxy)phenoxy]-6-methyl-4-(trifluoromethyl)benzoyl]amino]pyridine-2-carboxamide]
The IC50 of the first is 4.6-fold higher: 110 nM for the first, 24 nM for the second.

First: COc1c(Oc2cc(C(F)(F)F)cc(C)c2C(=O)Nc2ccnc(C(N)=O)c2)ccc(F)c1F [Compound 189, 4-[[2-(3,4-difluoro-2-methoxy-phenoxy)-6-methyl-4-(trifluoromethyl)benzoyl]amino]pyridine-2-carboxamide]
Second: COc1c(Oc2ccc(C(F)(F)F)c(Cl)c2C(=O)Nc2ccnc(C(N)=O)c2)ccc(F)c1F [Compound 193]
The IC50 of the first is 28-fold higher: 170 nM for the first, 6 nM for the second. The second is the more potent here.

Compared with `Cc1c(C(F)(F)F)ccc(Oc2ccc(F)cc2Cl)c1C(=O)Nc1ccc(C(N)=O)nc1` [Compound 190, 5-[[6-(2-chloro-4-fluoro-phenoxy)-2-methyl-3-(trifluoromethyl)benzoyl]amino]pyridine-2-carboxamide], `NC(=O)c1cc(NC(=O)c2c(Oc3ccc(OC(F)(F)F)cc3Cl)ccc(C(F)(F)F)c2Cl)ccn1` [Compound 192] is 380-fold lower in IC50: 1500 nM for the first, 4 nM for the second. The second is the more potent here.

Going from `COc1cc(OC(F)(F)F)ccc1Oc1ccc(C(F)(F)F)c(Br)c1C(=O)Nc1ccnc(C(N)=O)c1` [Compound 194, 4-[[2-bromo-6-[2-methoxy-4-(trifluoromethoxy)phenoxy]-3-(trifluoromethyl)benzoyl]amino]pyridine-2-carboxamide] to `COc1c(Oc2ccc(C(F)(F)F)c(Br)c2C(=O)Nc2ccnc(C(N)=O)c2)ccc(OC(F)(F)F)c1F` [Compound 195], the IC50 rises from 2 nM to 5 nM (2.5-fold).

Compared with `COc1c(Oc2ccc(C3CC3)c(C)c2C(=O)Nc2ccnc(C(N)=O)c2)ccc(OC(F)(F)F)c1F` [Compound 196, 4-[[3-cyclopropyl-6-[3-fluoro-2-methoxy-4-(trifluoromethoxy)phenoxy]-2-methyl-benzoyl]amino]pyridine-2-carboxamide], `COc1cc(OC(F)(F)F)ccc1Oc1ccc(C2CC2)c(C)c1C(=O)Nc1cc(C(N)=O)ncc1C` [Compound 198, 4-[[3-cyclopropyl-6-[2-methoxy-4-(trifluoromethoxy)phenoxy]-2-methyl-benzoyl]amino]-5-methyl-pyridine-2-carboxamide] is 1.7-fold higher in IC50: 9 nM for the first, 15 nM for the second. The first is the more potent here.

Going from `COc1cc(OC(F)(F)F)ccc1Oc1cc(C(F)F)cc(C)c1C(=O)Nc1ccnc(C(N)=O)c1` [Compound 200, 4-[[4-(difluoromethyl)-2-[2-methoxy-4-(trifluoromethoxy)phenoxy]-6-methyl-benzoyl]amino]pyridine-2-carboxamide] to `COc1cc(OC(F)(F)F)ccc1Oc1cc2c(c(C)c1C(=O)Nc1ccnc(C(N)=O)c1)OC(F)(F)O2` [Compound 202, 4-[[2,2-difluoro-6-[2-methoxy-4-(trifluoromethoxy)phenoxy]-4-methyl-1,3-benzodioxole-5-carbonyl]amino]pyridine-2-carboxamide], the IC50 falls from 85 nM to 6 nM (14-fold). The second is the more potent here.

Going from `COc1cc(OC(F)(F)F)ccc1Oc1cc(C2CC2)c(C2CC2)nc1C(=O)Nc1ccnc(C(N)=O)c1` [Compound 201, N-(2-carbamoyl-4-pyridyl)-5,6-dicyclopropyl-3-[2-methoxy-4-(trifluoromethoxy)phenoxy]pyridine-2-carboxamide] to `COc1cc(OC(F)(F)F)ccc1Oc1cc(C2CC2)c(C2CC2)nc1C(=O)Nc1ccc(C(N)=O)nc1` [Compound 205, N-(6-carbamoyl-3-pyridyl)-5,6-dicyclopropyl-3-[2-methoxy-4-(trifluoromethoxy)phenoxy]pyridine-2-carboxamide], the IC50 rises from 530 nM to 1100 nM (2.1-fold). The first is the more potent here.

Compound `COc1cc(OC(F)(F)F)ccc1Oc1cc2c(c(C)c1C(=O)Nc1ccc(C(N)=O)nc1)OC(F)(F)O2` [Compound 203] has an IC50 of 140 nM.
